Assay results reported in patent US20240209456A1, “METHODS AND COMPOSITIONS RELATED TO CELL-CYCLE RNA's” (BETH ISRAEL DEACONESS MEDICAL CENTER, priority 2021, published 2024).
*1 amine or outer side, *2 acyl side, *3 side chain or, on linkers, in order; H or OH if unused. Where a SMILES comes first, the peptide text is derived from it. Bridges are numbered along the chain shown (N, C = ends). Roman numbers before positions name the chains, in order. [ ]: non-standard residue; d: D form. Actinocin(9to1) = Cc1c2oc3c(C)ccc(C(=O)[*:1])c3nc-2c(C(=O)[*:2])c(N)c1=O; NMeV = CN[C@H](C(=O)O)C(C)C; Sar = CNCC(=O)O

Test system: c-MYC SPEARs
Experiment: qRT-PCR / strand-specific qRT-PCR of c-MYC SPEARs
Type: cell-based, human
Conditions: for c-MYC SPEARs level upon transcription inhibitors: HL-60, DRB and ActD, FIG. 10C; for response of total c-MYC SPEARs: HL-60 released from double thymidine block, 2 hrs, MG149 200 μM, TH1834 500 μM
Method: Total RNA isolation was carried out and all RNA samples used in this study were treated with DNase I (10 U of DNase I per 3 μg of total RNA; 37° C. for one hour; in the presence of RNase inhibitor). After DNase I treatment, RNA samples were extracted with acidic phenol (pH 4.3) to eliminate any remaining traces of DNA. cDNA syntheses were performed with Random Primers (Invitrogen) or gene-specific primers with Transcriptor Reverse Transcriptase (Roche Applied Science) according to the manufacturer's recommendation. cDNA was purified with a High Pure PCR Product Purification Kit (Roche Applied Science).
Sybr green reaction was performed using iQ Sybr Green supermix (Biorad, Hercules, CA) using the following parameters: 95° C. (10 min), 40 cycles of 95° C. (15 s) and 60° C. (1 min) 72° C. (1 min). TaqMan analysis was performed using Hotstart Probe One-step qRT-PCR master mix (USB) at the following conditions: 50° C. (10 min.), 95° C. (2 min.), and then 40 cycles of 95° C. (15 sec.) and 60° C. (60 sec.).
Primers used for strand-specific real-time RT PCR (Sybr): Reverse Transcriptase primer for c-MYC SPEARs: 5′-AACCGCATCCTTGTCCTGTGAGTA-3′ (SEQ ID NO: 1); PCR primers: Forward: 5′-ACAGGCAGACACATCTCAGGGCTA-3′ (SEQ ID NO: 2); Reverse: 5′-ATAGGGAGGAATGATAGAGGCATA-3′ (SEQ ID NO: 3); and Reverse Transcriptase primer for PU1 SPEARs: 5′-GGCTTTTGCTCTAACCCAAC-3′ (SEQ ID NO: 4); PCR primers: Forward: 5′-ACTATGCTGAAGACCCTACAC-3′ (SEQ ID NO: 5); Reverse: 5′-GCTCTAACCCAACAAATGCC-3′ (SEQ ID NO: 6).
Nascent RNA/DNA capture was performed using Click-iT Nascent RNA Capture Kit (ThermoFisher) according to the manufacturer's instructions with minor modifications. Briefly, 1. Labeling the cells with EU/EdU. 200 mM EU or 30 mM EdU stock solutions were added to the cells, to a final concentration 0.5 mM or 30 μM, respectively. 2. Incubation. The cells were incubated for 1 or 2 hours. 3. RNA/DNA isolation. The cells were harvested and the RNA/DNA were isolated and dissolved in 14 μL of H2O. 4. Biotinylation of RNA/DNA by Click reaction. Click-iT reaction cocktail (50 μL per reaction) was prepared accordingly to manufacturer's instructions: a mixture containing 1× Click-iT EU buffer; 2 mM CuSO4; 1 mM Biotin azide; 13.25 μL of the isolated RNA; 10 mM Click-iT reaction buffer additive 1; 12 mM Click-iT reaction buffer additive 2 was prepared. After adding each component, the reaction cocktail was gently mixed by vortexing. The addition of the Click-iT reaction buffer additive 1 stock initiates the click reaction between the EU-RNA/EdU-DNA and biotin azide. Afterwards the Click-iT® reaction buffer additive 2 is added and incubated for 30 minutes with gentle vortexing. 5. RNA/DNA precipitation. […]

| Compound | c-MYC SPEARs level upon transcription inhibitors | response of total c-MYC SPEARs |
| --- | --- | --- |
| Cc1c2oc3c(C)ccc(C(=O)N[C@@H]4C(=O)N[C@H](C(C)C)C(=O)N5CCC[C@H]5C(=O)N(C)CC(=O)N(C)[C@@H](C(C)C)C(=O)O[C@@H]4C)c3nc-2c(C(=O)N[C@@H]2C(=O)N[C@H](C(C)C)C(=O)N3CCC[C@H]3C(=O)N(C)CC(=O)N(C)[C@@H](C(C)C)C(=O)O[C@@H]2C)c(N)c1=O [ActD, Actinomycin D] (I: T[dV]P[Sar][NMeV] / II: T[dV]P[Sar][NMeV]; ester I:1-I:C, II:1-II:C; linker I:N-II:N via Actinocin(9to1)) | negatively affected |  |
| OC[C@H]1O[C@@H](n2cnc3cc(Cl)c(Cl)cc32)[C@H](O)[C@@H]1O [DRB, 5,6-Dichlorobenzimidazole 1-β-D-ribofuranoside] | negatively affected |  |
| CCCCCCCc1ccc(CCc2cccc(O)c2C(=O)O)cc1 [MG149] |  | not affected |
| O=C(O)Cn1nnc(-c2ccc(CN(CCCCOc3ccc(CN4CCCC4)cc3)CCc3ccccc3)cc2)n1 [TH1834] |  | not affected |
